# Reference: patent US10770169B2, “Method of providing a treatment to a subject based on a dynamic pathway map” (THE REGENTS OF THE UNIVERSITY OF CALIFORNIA, priority 2010, dated 2020)
# Where two headings read alike, the source gives them in different places.
# Tested on: panel of 55 breast cancer cell lines
# Experiment: Cell growth inhibition assay (Cell Titer Glo, 72 h, 9 doses; GI50, TGI, LC50)
# Assay type: cell-based, human
# Conditions: Homo sapiens, read-out: GI50 (converted)
compound,measurement,setting,value
Cc1ccc(C(=O)N(CCCN)[C@@H](c2nc3cc(Cl)ccc3c(=O)n2Cc2ccccc2)C(C)C)cc1 [Ispinesib],GI50,"AU565, cell line AU565, censored GI50 values",22.4 nM
same,GI50,"AU565, cell line AU565",22.4 nM
same,GI50,"BT-20, cell line BT20, censored GI50 values",17 nM
same,GI50,"BT-20, cell line BT20",17 nM
same,GI50,"BT-474, cell line BT474, censored GI50 values",51.3 nM
same,GI50,"BT-474, cell line BT474",51.3 nM
same,GI50,"BT-483, cell line BT483, censored GI50 values",0.049 nM
same,GI50,"BT-483, cell line BT483",0.049 nM
same,GI50,"BT-549, cell line BT549, censored GI50 values",46.8 nM
same,GI50,"BT-549, cell line BT549",46.8 nM
same,GI50,"CAMA-1, cell line CAMA1, censored GI50 values",31.6 nM
same,GI50,"CAMA-1, cell line CAMA1",31.6 nM
same,GI50,"HCC38, cell line HCC38, censored GI50 values",46.8 nM
same,GI50,"HCC38, cell line HCC38",46.8 nM
same,GI50,"HCC70, cell line HCC70, censored GI50 values",45.7 nM
same,GI50,"HCC70, cell line HCC70",45.7 nM
same,GI50,"HCC202, cell line HCC202, censored GI50 values",7.59 nM
same,GI50,"HCC202, cell line HCC202",7.59 nM
same,GI50,"HCC1143, cell line HCC1143, censored GI50 values",51.3 nM
same,GI50,"HCC1143, cell line HCC1143",51.3 nM
same,GI50,"HCC1187, cell line HCC1187, censored GI50 values",26.9 nM
same,GI50,"HCC1187, cell line HCC1187",26.9 nM
same,GI50,"HCC1395, cell line HCC1395, censored GI50 values",27.5 nM
same,GI50,"HCC1395, cell line HCC1395",27.5 nM
same,GI50,"HCC1419, cell line HCC1419, censored GI50 values",6760 nM
same,GI50,"HCC1419, cell line HCC1419",6760 nM
same,GI50,"HCC1428, cell line HCC1428, censored GI50 values",4470 nM
same,GI50,"HCC1428, cell line HCC1428",4470 nM
same,GI50,"HCC1500, cell line HCC1500, censored GI50 values",33.9 nM
same,GI50,"HCC1500, cell line HCC1500",33.9 nM
same,GI50,"HCC1806, cell line HCC1806, censored GI50 values",28.8 nM
same,GI50,"HCC1806, cell line HCC1806",28.8 nM
same,GI50,"HCC1937, cell line HCC1937, censored GI50 values",282 nM
same,GI50,"HCC1937, cell line HCC1937",282 nM
same,GI50,"HCC1954, cell line HCC1954, censored GI50 values",30.9 nM
same,GI50,"HCC1954, cell line HCC1954",30.9 nM
same,GI50,"MCF7, cell line MCF7, censored GI50 values",38 nM
same,GI50,"MCF7, cell line MCF7",38 nM
same,GI50,"MDA-MB-134-VI, cell line MDAMB134VI, censored GI50 values",43.7 nM
same,GI50,"MDA-MB-157, cell line MDAMB157, censored GI50 values",31.6 nM
same,GI50,"MDA-MB-175-VII, cell line MDAMB175VII, censored GI50 values",1700 nM
same,GI50,"MDA-MB-231, cell line MDAMB231, censored GI50 values",31.6 nM
same,GI50,"MDA-MB-361, cell line MDAMB361, censored GI50 values",33.9 nM
same,GI50,"MDA-MB-415, cell line MDAMB415, censored GI50 values",75.9 nM
same,GI50,"MDA-MB-436, cell line MDAMB436, censored GI50 values",38.9 nM
same,GI50,"MDA-MB-453, cell line MDAMB453, censored GI50 values",42.7 nM
same,GI50,"MDA-MB-468, cell line MDAMB468, censored GI50 values",19.1 nM
same,GI50,"SK-BR-3, cell line SKBR3, censored GI50 values",33.9 nM
same,GI50,"SUM52PE, cell line SUM52PE, censored GI50 values",28.8 nM
same,GI50,"SUM149PT, cell line SUM149PT, censored GI50 values",33.1 nM
same,GI50,"SUM185PE, cell line SUM185PE, censored GI50 values",110 nM
same,GI50,"SUM225CWN, cell line SUM225CWN, censored GI50 values",105 nM
same,GI50,"SUM1315MO2, cell line SUM1315MO2, censored GI50 values",40.7 nM
same,GI50,"SUM-159-PT, cell line SUM159PT, censored GI50 values",47.9 nM
same,GI50,"T47D, cell line T47D, censored GI50 values",83.2 nM
same,GI50,"UACC-893, cell line UACC893, censored GI50 values",10.5 nM
same,GI50,"ZR-75-1, cell line ZR751, censored GI50 values",89.1 nM
same,GI50,"ZR-75B, cell line ZR75B, censored GI50 values",132 nM
same,GI50,"cell line 600MPE, censored GI50 values",20.9 nM
same,GI50,cell line 600MPE,20.9 nM
same,GI50,"cell line HCC2185, censored GI50 values",29.5 nM
same,GI50,cell line HCC2185,29.5 nM
same,GI50,"cell line HCC3153, censored GI50 values",28.2 nM
same,GI50,cell line HCC3153,28.2 nM
same,GI50,"cell line LY2, censored GI50 values",22.9 nM
same,GI50,cell line LY2,22.9 nM
